How the values were obtained:
[1] = test system: scopolamine-induced spontaneous alternation behavior disorder; test: Scopolamine-induced spontaneous alternation behavior disorder in mice (Y-maze); type: in vivo; conditions: mouse, oral, dose 0.003 mg/kg; scopolamine 0.5 mg/kg i.p.
Protocol: (§1) An Improvement Effect for Scopolamine-Induced or MK-801-Induced Spontaneous Alternation Behavior in Mice
(§2) An improvement effect of the compound (I) for cognitive impairment was evaluated by the above-described well-known test method as a model of a short-term learning disorder.
(§3) Species: Male ddY mice/number of animals (number of animals per group): 6 to 10 animals per group
(§4) A mouse was introduced into the laboratory 1 hour before starting the test. The mouse was placed at one end of an arm in a Y-maze having equal lengths of arms in three directions, and was able freely explored for 8 minutes with the number of the entries into the arms were counted. Furthermore, a spontaneous alternation behavior was defined as consecutive entries into each of the three arms, and an alternation rate was defined as the percentage of the number of time of this behavior relative to the total number of the entries, and calculated by the following equation.
Alternation rate (%)=(number of spontaneous alternation behaviors/total number of entries−2)×100.
The compound to be tested was orally administered 50 minutes before the initiation of the test, and 30 minutes later, 0.5 mg/kg of scopolamine or 0.15 mg/kg of MK-801 (in the normal group, physiological saline) was intraperitoneally administered. Furthermore, for the normal group (the group administered with physiological saline) and the control group (the group administered with 0.5 mg/kg scopolamine or 0.15 mg/kg MK-801), a solvent (vehicle) was orally administered when the compound to be tested was administered. For the normal group, physiological saline was intraperitoneally administered when scopolamine was administered.
The alternation rate (%) is expressed as an average value in each group (mean±SE). In regard to the alternation rate (%), in the case where a significant difference between the normal group and the control group (Student's T test) was found, it was considered that there was an establishment of learning disorder by the administration of scopolamine or MK-801. By carrying out the Dunnett evaluation for the group administered with the compound to be tested relative to the control group, the presence or absence of the learning disorder action of the compound to be tested was determined. In each evaluation, it was considered that there was a tendency at p<0.10, and there was a significant difference at p<0.05.

[2] = test system: water maze learning disorders in old rats; test: Water maze learning disorders in old rats; type: in vivo, rat
Protocol: Evaluation of a Drug for Water Maze Learning Disorders in Old Rats
The improvement effect of the compound (I) for dementia was evaluated by a known water maze learning disorder model used as a pathophysiology model.
Specifically, it was evaluated in accordance with the method as described in “J Pharmacol Exp Ther, 1996; 279: 1157-73, Yamazaki M. et al.”.

[3] = test system: MK-801-induced spontaneous alternation behavior disorder; test: MK-801-induced spontaneous alternation behavior disorder in mice (Y-maze); type: in vivo; conditions: mouse, oral, dose 0.003 mg/kg; MK-801 0.15 mg/kg i.p.
Protocol: as §1, §2, §3, §4
Alternation rate (%)=(number of spontaneous alternation behaviors/total number of entries−2)×100. […]
The alternation rate (%) is expressed as an average value in each group (mean±SE). […] By carrying out the Dunnett evaluation for the group administered with the compound to be tested relative to the control group, the presence or absence of the learning disorder action of the compound to be tested was determined. […]

| SMILES | inhibition of scopolamine-induced spontaneous alternation behavior disorder [1] | improvement of water maze learning disorders in old rats ([2]; dose 0.01 mg/kg) | improvement of water maze learning disorders in old rats ([2]; dose 0.03 mg/kg) | improvement of MK-801-induced spontaneous alternation behavior disorder [3] |
| --- | --- | --- | --- | --- |
| NC(N)=NC(=O)c1ccc2c3ccccc3n(C3CCOCC3)c2c1 [Example 25] | significantly inhibited | significantly improved | significantly improved | significantly improved |
| CC(C)n1c2cc(C(=O)N=C(N)N)ccc2c2c(CO)cccc21 [Example 65] | significantly inhibited | – | – | – |
